Experimental findings from US20180312493A1, “Antibiotic Compounds, Pharmaceutical Formulations Thereof And Methods And Uses Therefor” (Simon Fraser University, priority 2015, published 2018) are described below.

Converted amounts (≈) assume the structure as drawn. Counter-ions that a name gives are not always drawn. Like-named read-outs stand apart in the source and are kept apart here.

Data set [1] can be described thus: Mammalian cytotoxicity, CellTiter 96 AQueous One (MTS). It is filed as cell-based. Particulars: human, HeLa 229 cells, positive control. How it is done: The cytotoxic activities of compounds were determined for HeLa cells 229 (ATCC:CCL-2-.1) in microtiter cultures by measuring dehydrogenase activity using CellTiter 96® AQueous One Solution Cell Proliferation Assay™ (Promega™, Madison, Wis., USA), according to the manufacturer's protocol. Freshly split cells were seeded into microtiter wells (2×10^4/well) and grown for 24 hours. The original media was then removed and replaced with media containing the desired concentration of compound or solvent control (i.e., DMSO). Plates were incubated for 24 h at 37° C. in a humidified incubator with a 5% CO2 atmosphere. At the end of the growth period, cells were lysed by the addition of 20 μl of Cell Titer 96 Aqueous One™ solution, and the incubation was continued for another 3 h at 37° C. Production of formazan was determined at 490 nm on Benchmark Plus™ microplate spectrophotometer (Bio-Rad™). To control for intrinsic absorbance, control series containing inhibitor dilutions but no cells were run for every experiment and the resulting absorbance values were subtracted as background from the experimental readings. Growth in compound-free control wells was considered as 100% and percentage of growth inhibition was calculated for each compound concentration. Cytotoxicity was quantified as the CC50, the concentration of compound that inhibited 50% of conversion of MTS to formazan. […]

For the next data set, the system named is VRE#2 (2010A). Put plainly: In vitro susceptibility, broth microdilution (MIC). In kind it is cell-based, vancomycin resistant Enterococci. Particulars: read-out: Antimicrobial activity (MIC) VRE#2. In outline: (§1)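 MIC determined by CLSI 2-fold broth microdilution in cation-adjusted Mueller–Hinton broth at ~2.5×10^5 CFU/ml, final compound 0.031–64 μg/ml, 18–24 h at 37 °C. MIC is the lowest concentration giving complete growth inhibition by background-corrected OD600 versus compound-free wells; duplicate or triplicate wells, replicated at least twice.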
Background: In broth dilution the organism is exposed to a series of concentrations in liquid medium.

For the next data set, the target named is T1, MRSA Pyk (Staphylococcus aureus, UniProt Q6GG09).
T1 construct: made in house; host or cells: E. coli BL-21 (DE3)
Put plainly: MRSA pyruvate kinase (PK) activity, continuous LDH-coupled assay. In kind it is biochemical, methicillin resistant S. aureus (MRSA252). In outline: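 His-tagged MRSA PK (strain Sanger 252) and human PK isoforms expressed in E. coli BL-21 (DE3) and Ni-NTA purified, used at 15 nM in an LDH-coupled assay following NADH oxidation at 340 nm, 30° C, up to 5 min, ≤1% DMSO. IC50 from four-parameter variable-slope fit; Ki with PEP 2-20 mM, ADP fixed 2 mM, inhibitor 0-400 nM.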

The test system of another data set is K. pneumoniae (C238). As to the kind of experiment: In vitro susceptibility, broth microdilution (MIC). Particulars: Klebsiella pneumoniae, read-out: Antimicrobial activity (MIC) K. pneumoniae. In kind it is cell-based. A digest of the protocol: (§2)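 CLSI 2-fold serial broth microdilution; K. pneumoniae C238 grown in L-broth, S. aureus ATCC 29213 in Mueller Hinton broth, plates incubated 18–24 h at 37 °C. MIC taken as lowest concentration giving complete growth inhibition by OD600 versus compound-free wells, background-subtracted.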

In a further data set the test system is S. aureus (ATCC29213). As to the kind of experiment: In vitro susceptibility, broth microdilution (MIC). It is filed as cell-based. Particulars: Staphylococcus aureus. A digest of the protocol: as §2
The test system of data set [2] is A. baumannii (ATCC 17978). As to the kind of experiment: In vitro susceptibility, broth microdilution (MIC). In kind it is cell-based. Particulars: Acinetobacter baumannii. A digest of the protocol: as §1
A further data set relates to MRSA MW2 (USA400). Put plainly: In vitro susceptibility, broth microdilution (MIC). In kind it is cell-based, methicillin resistant S. aureus. Particulars: Staphylococcus aureus, read-out: Antimicrobial activity (MIC) MSRA USA400. In outline:
as §1

The test system of a further data set is S. aureus ATCC 29123. As to the kind of experiment: Thigh infection model in neutropenic mice. It is filed as in vivo, female CD-1 mice. Particulars: thigh muscle, 10 mg/kg IV BID (2 and 8 h post-infection), 24 hr post infection. How it is done: The antimicrobial activity of compounds 23 and 60 against S. aureus ATCC 29123 was tested in vivo using a thigh infection model in neutropenic mice. Briefly, animals (female CD-1 mice, 5 weeks of age) were made neutropenic prior to S. aureus thigh infection by pre-treating with cyclophosphamide (150 mg/kg, IP, −4 and −1 days pre-inoculation). On the inoculation day (day 0), mice were infected with S. aureus at time zero (t=0). Animals were individually monitored for adverse reactions for 30 min post-infection.
Compounds 23 and 60 were prepared for IV administration and for oral administration. Vancomycin was administered as a solution in PBS. The test compounds were administered at 2 and 8 hours post-infection and animals were individually monitored for adverse reactions for 30 min after each injection. All animals were then monitored hourly from 20 hours post infection to the endpoint (t=24 hr post infection). At the indicated timepoint, animals were sacrificed and the injected thigh collected.
Quantitative enumeration of bacterial load was determined by plating serial dilutions from homogenized thigh muscles. The plates were incubated and colony counts were determined. CFU per mL calculated was calculated.

The subject of data set [3] is S. typhimurium (ATCC BAA-185). As to the kind of experiment: In vitro susceptibility, broth microdilution (MIC). In kind it is cell-based. Particulars: Salmonella enterica, read-out: Antimicrobial activity (MIC) S. typhimurium. In outline: as §1
Data set [4] deals with A. baumannii (ATCC 19606). As to the kind of experiment: In vitro susceptibility, broth microdilution (MIC). Particulars: Acinetobacter baumannii, ATCC19606; A. baumannii ATCC 19606 (values without asterisk); read-out: Antimicrobial activity (MIC) A. baumannii. It is filed as cell-based. A digest of the protocol: as §1
A further data set concerns MRSA (ATCC BAA-1762). Put plainly: In vitro susceptibility, broth microdilution (MIC). It is filed as cell-based, methicillin resistant S. aureus. Particulars: Staphylococcus aureus; MRSA ATCC BAA-1762; read-out: Antimicrobial activity (MIC) MRSA ATCC BAA1762. A digest of the protocol:
as §1

Where [5] appears, read: S. aureus ATCC29213, 18-24 h, 37 C, read-out: Antimicrobial activity (MIC) S. aureus ATCC29213.
Where [6] appears, read: ATCC17978, A. baumannii ATCC 17978 (values marked *), read-out: Antimicrobial activity (MIC) A. baumannii.

T1 sequence (Q6GG09 whole entry): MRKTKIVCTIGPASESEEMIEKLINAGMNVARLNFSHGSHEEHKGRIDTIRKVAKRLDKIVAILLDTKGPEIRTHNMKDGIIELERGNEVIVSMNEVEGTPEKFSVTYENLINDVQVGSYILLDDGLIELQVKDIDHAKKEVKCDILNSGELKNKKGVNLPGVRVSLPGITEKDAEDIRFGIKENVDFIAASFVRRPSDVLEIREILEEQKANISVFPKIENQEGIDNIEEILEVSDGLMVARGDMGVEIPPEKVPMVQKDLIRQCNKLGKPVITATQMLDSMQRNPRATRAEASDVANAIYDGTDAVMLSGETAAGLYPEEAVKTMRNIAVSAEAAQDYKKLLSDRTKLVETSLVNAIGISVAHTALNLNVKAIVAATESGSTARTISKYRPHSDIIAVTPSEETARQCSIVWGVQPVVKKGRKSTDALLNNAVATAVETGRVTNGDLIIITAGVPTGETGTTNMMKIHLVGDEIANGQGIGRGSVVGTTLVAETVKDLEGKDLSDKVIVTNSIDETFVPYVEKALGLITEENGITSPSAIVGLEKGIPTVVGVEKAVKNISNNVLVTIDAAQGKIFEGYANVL

In general, CC50 refers to the concentration at which the toxic effect on the cells reaches its halfway point. High values mean better tolerance by the cells, low ones harm at low concentration. In turn, `COc1cc(O)c(CC=C(C)C)c(O)c1C(=O)/C=C/c1ccc(O)cc1` [xanthohumol] showed a CC50 at 24 h in [1] of approximately 9 µg/mL (≈ 25.4 µM).

In general, MIC refers to the smallest concentration in the dilution series that meets the test's criterion for growth inhibition. The IC50 is the concentration that gives 50% inhibition. As to `CN(C)CCC(=O)c1c(/C=C/c2ccc(Cl)cc2)[nH]c2cc(Br)ccc12.Cl` [Compound 6, (E)-1-(6-Bromo-2-(4-chlorostyryl)-1H-indol-3-yl)-3-(dimethylamino)propan-1-one Hydrochloride], the MIC in the data set on VRE#2 (2010A) (VRE#2 (2010A)) was found to be 8 µg/mL; in the data set on K. pneumoniae (C238), 8 µg/mL; with S. aureus (ATCC29213) (setting [5]), 8 µg/mL; in [2] (setting [6]), 64 µg/mL; in the data set on MRSA MW2 (USA400) (MRSA MW2 (USA400)), 8 µg/mL. Besides, the IC50 against MRSA Pyk lay in the range of 100 to 1000 nM.

Consider `CN1CCN(CCOC(=O)c2c(/C=C/c3ccc(Cl)cc3)[nH]c3cc(Br)ccc23)CC1` [Compound 61, 2-(4-Methylpiperazin-1-yl)ethyl (E)-6-bromo-2-(4-chlorostyryl)-1H-indole-3-carboxylate], for which the MIC with VRE#2 (2010A) (VRE#2 (2010A)) is 4 µg/mL (≈ 7.95 µM); in the data set with K. pneumoniae (C238) (K. pneumoniae (C238)), 4 µg/mL (≈ 7.95 µM); in the data set with S. aureus (ATCC29213) (setting [5]), 4 µg/mL (≈ 7.95 µM); in data set [2] (setting [6]) it was more than 64 µg/mL; in the data set with MRSA MW2 (USA400) (MRSA MW2 (USA400)), 4 µg/mL (≈ 7.95 µM). Moreover, the concentration for half-maximal inhibition (IC50) at MRSA Pyk lay in the range of 100 to 1000 nM.

At MRSA Pyk, `CN(C)CCNC(=O)c1c(/C=C/c2ccc(Cl)cc2)[nH]c2cc(Br)ccc12` [Compound 23, (E)-6-Bromo-2-(4-chlorostyryl)-N-(2-(dimethylamino)ethyl)-1H-indole-3-carboxamide] returned an IC50 of less than 100 nM. Besides, in the data set on S. aureus (ATCC29213) (setting [5]), the MIC is 8 µg/mL (≈ 17.9 µM). For the same compound, in the data set on S. aureus ATCC 29123, the “reduction in CFU” value is recorded as 3 log.

In the case of `CN1CCN(CCC(=O)c2c(/C=C/c3ccc(Cl)cc3)[nH]c3cc(Br)ccc23)CC1` [Compound 7, (E)-1-(6-Bromo-2-(4-chlorostyryl)-1H-indol-3-yl)-3-(4-methylpiperazin-1-yl)propan-1-one Hydrochloride], the MIC with VRE#2 (2010A) is 8 µg/mL; in the data set with K. pneumoniae (C238) it was 8 µg/mL; in the data set on S. aureus (ATCC29213) (ATCC29213, read-out: Antimicrobial activity (MIC) S. aureus ATCC29213), 8 µg/mL; in [2] (ATCC17978, read-out: Antimicrobial activity (MIC) A. baumannii) it was more than 64 µg/mL; with MRSA MW2 (USA400) it was 8 µg/mL. This compound displayed an IC50 against MRSA Pyk of 100 to 1000 nM.

Regarding `CN(C)CCOc1cc2[nH]c(-c3cc4ccc(Br)cc4[nH]3)cc2cc1Cl` [Compound 199, 2-((6′-Bromo-5-chloro-1H,1′H-[2,2′-biindol]-6-yl)oxy)-N,N-dimethylethan-1-amine], the MIC with VRE#2 (2010A) (VRE#2 (2010A)) was 4 µg/mL (≈ 9.24 µM); in the data set on S. aureus (ATCC29213) (setting [5]), 4 µg/mL (≈ 9.24 µM); in data set [3], 32 µg/mL (≈ 73.9 µM); in data set [4], 8 µg/mL (≈ 18.5 µM); in the data set with MRSA (ATCC BAA-1762), 4 µg/mL (≈ 9.24 µM). The IC50 against MRSA Pyk was less than 100 nM.

For `O=C(O)CCCC(=O)c1c(-c2cc3cc(Cl)ccc3[nH]2)[nH]c2cc(Br)ccc12` [Compound 102, 5-(6-bromo-5′-chloro-1H,1′H-[2,2′-biindol]-3-yl)-5-oxopentanoic Acid], the MIC in the data set with VRE#2 (2010A) (VRE#2 (2010A)) was 16 µg/mL (≈ 34.8 µM); in the data set on K. pneumoniae (C238) (K. pneumoniae (C238)), 16 µg/mL (≈ 34.8 µM); with S. aureus (ATCC29213) (setting [5]), 8 µg/mL (≈ 17.4 µM); in [3] it was 8 µg/mL (≈ 17.4 µM); with MRSA MW2 (USA400) (MRSA MW2 (USA400)), 8 µg/mL (≈ 17.4 µM). This compound also gave an IC50 against MRSA Pyk of less than 100 nM.
